Reference: the supplement of paper PMC10307832

Tests used:
Assay in all cases: relative viability (nuclei count vs DMSO), 5 days (fraction); higher = more cells survive
[1] = compound: CC1=CC=C(C=C1)C(=O)CN2C3=C(CCCC3)SC2=N [Pifithrin_alpha] + C[C@@H](Oc1cc(-c2cnn(C3CCNCC3)c2)cnc1N)c1c(Cl)ccc(F)c1Cl [Crizotinib] (partner 1 µM)
Method in brief: (§1)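 Lung cancer cell lines in 1536-well plates were dosed by pin tool the day after seeding, either with one drug alone or with a fixed anchor-drug dose plus five library-drug doses (not always all listed) in √10 steps. After 5 days, cells were fixed and their nuclei stained in one step (final 0.05% Triton X-100, 1% formaldehyde, 1 ug/ml Hoechst), then counted on 4× images. Relative viability is the nuclei count in treated wells divided by that in vehicle wells. Values are medians of duplicate plates.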

Bemcentinib + Vorinostat = compound: Nc1nc(Nc2ccc3c(c2)CC[C@@H](N2CCCC2)CC3)nn1-c1cc2c(nn1)-c1ccccc1CCC2 [Bemcentinib] + O=C(CCCCCCC(=O)Nc1ccccc1)NO [Vorinostat] (partner 1 µM)
Method in brief: as §1

Axitinib + Palbociclib = compound: CNC(=O)c1ccccc1Sc1ccc2c(/C=C/c3ccccn3)n[nH]c2c1 [Axitinib] + CC(=O)c1c(C)c2cnc(Nc3ccc(N4CCNCC4)cn3)nc2n(C2CCCC2)c1=O [Palbociclib] (partner 0.5 µM)
Method in brief: as §1

Row | Cell Line | relative viability ([1]; first compound 1 µM) | relative viability ([1]; first compound 3.162 µM) | relative viability ([1]; first compound 10 µM) | relative viability ([1]; first compound 31.62 µM) | relative viability ([1]; first compound 100 µM) | relative viability (Bemcentinib + Vorinostat; first compound 0.04 µM) | relative viability (Bemcentinib + Vorinostat; first compound 0.1265 µM) | relative viability (Bemcentinib + Vorinostat; first compound 0.4 µM) | relative viability (Bemcentinib + Vorinostat; first compound 1.265 µM) | relative viability (Bemcentinib + Vorinostat; first compound 4 µM) | relative viability (Axitinib + Palbociclib; first compound 0.005 µM) | relative viability (Axitinib + Palbociclib; first compound 0.01581 µM) | relative viability (Axitinib + Palbociclib; first compound 0.05 µM) | relative viability (Axitinib + Palbociclib; first compound 0.1581 µM) | relative viability (Axitinib + Palbociclib; first compound 0.5 µM)
1 | NCI-H1734 | 0.826 | 0.647 | 0.686 | 0.592 | 0.604 | 0.788 | 0.773 | 0.853 | 0.833 | 0.828 | 0.35 | 0.373 | 0.345 | 0.334 | 0.425
2 | NCI-H2087 | 0.95 | 0.796 | 0.818 | 0.706 | 0.895 | 0.567 | 0.836 | 1.1 | 0.665 | 0.678 | 0.251 | 0.202 | 0.294 | 0.265 | 0.255
3 | EKVX | 1.02 | 0.716 | 0.725 | 0.46 | 0.738 | 0.509 | 0.815 | 0.726 | 0.701 | 0.79 | 0.402 | 0.368 | 0.433 | 0.381 | 0.358
4 | NCI-H1915 | 0.867 | 0.979 | 0.912 |  | 1.25 | 0.508 | 0.518 | 0.547 | 0.55 | 0.491 | 0.526 | 0.534 | 0.512 | 0.524 | 0.566
5 | NCI-H3122 | 0.288 | 0.323 | 0.291 | 0.296 | 0.321 | 0.548 | 1.07 | 1.11 | 1.06 | 0.983 | 0.171 | 0.198 | 0.205 | 0.206 | 0.184
6 | BEN | 0.878 | 1.03 | 1.05 | 0.84 | 1.34 | 0.567 | 0.627 | 0.562 | 0.56 | 0.6 | 0.474 | 0.433 | 0.459 | 0.518 | 0.515
7 | 201T | 1.04 | 0.902 | 0.862 | 0.808 | 0.765 | 0.962 | 0.981 | 1.04 | 0.938 | 1.06 | 0.376 | 0.361 | 0.335 | 0.351 | 0.343
8 | NCI-H1666 | 0.665 | 0.63 | 0.549 | 0.474 | 0.316 | 1.02 | 1.24 | 1.07 | 1 | 0.998 | 0.689 | 0.606 | 0.653 | 0.631 | 0.657
9 | NCI-H1993 |  | 0.771 | 0.815 | 0.797 | 0.794 | 0.739 | 0.716 | 1.07 | 0.981 | 1.05 | 0.604 | 0.68 | 0.678 | 0.583 | 0.677
10 | CAL-12T |  | 0.656 | 0.58 | 0.5 | 0.555 | 0.907 | 1 | 0.824 | 0.762 | 0.831 | 0.586 | 0.508 | 0.41 | 0.525 | 0.522
